Key:
REL (human c-Rel) = target: T1, REL (human c-Rel) (Homo sapiens, UniProt Q04864); test: EMSA of extracts from CM101-treated transfected […] cells; C27S mutant less inhibited; western blot of covalently modified high molecular weight forms; assay type: cell-based
T1 construct: FLAG-tagged human REL expressed in 293 cells
T1 sequence (Q04864 2-619): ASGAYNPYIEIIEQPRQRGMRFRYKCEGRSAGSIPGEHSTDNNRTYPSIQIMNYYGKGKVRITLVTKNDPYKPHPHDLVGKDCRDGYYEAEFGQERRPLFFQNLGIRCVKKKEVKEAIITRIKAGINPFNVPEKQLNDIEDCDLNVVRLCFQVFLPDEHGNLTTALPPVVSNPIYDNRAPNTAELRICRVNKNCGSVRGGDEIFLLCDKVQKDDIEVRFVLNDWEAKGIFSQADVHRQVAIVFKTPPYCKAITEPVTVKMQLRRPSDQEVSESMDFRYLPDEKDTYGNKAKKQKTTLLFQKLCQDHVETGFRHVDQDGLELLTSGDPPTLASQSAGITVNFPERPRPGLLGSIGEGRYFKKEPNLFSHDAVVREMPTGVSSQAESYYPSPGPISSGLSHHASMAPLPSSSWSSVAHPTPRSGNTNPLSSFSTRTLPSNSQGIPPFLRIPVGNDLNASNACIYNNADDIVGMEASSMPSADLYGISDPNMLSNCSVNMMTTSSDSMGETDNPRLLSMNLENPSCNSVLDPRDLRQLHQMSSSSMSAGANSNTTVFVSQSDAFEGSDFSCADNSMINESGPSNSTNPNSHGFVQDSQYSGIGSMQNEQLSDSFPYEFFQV

p65 (RelA) = target: T2, p65 (RelA) (Homo sapiens, UniProt Q04206); test: EMSA of extracts from CM101-treated transfected […] cells; C38S mutant less inhibited; western blot of covalently modified high molecular weight forms; assay type: cell-based
T2 construct: FLAG-tagged human p65 expressed in 293 cells
T2 sequence (Q04206 whole entry): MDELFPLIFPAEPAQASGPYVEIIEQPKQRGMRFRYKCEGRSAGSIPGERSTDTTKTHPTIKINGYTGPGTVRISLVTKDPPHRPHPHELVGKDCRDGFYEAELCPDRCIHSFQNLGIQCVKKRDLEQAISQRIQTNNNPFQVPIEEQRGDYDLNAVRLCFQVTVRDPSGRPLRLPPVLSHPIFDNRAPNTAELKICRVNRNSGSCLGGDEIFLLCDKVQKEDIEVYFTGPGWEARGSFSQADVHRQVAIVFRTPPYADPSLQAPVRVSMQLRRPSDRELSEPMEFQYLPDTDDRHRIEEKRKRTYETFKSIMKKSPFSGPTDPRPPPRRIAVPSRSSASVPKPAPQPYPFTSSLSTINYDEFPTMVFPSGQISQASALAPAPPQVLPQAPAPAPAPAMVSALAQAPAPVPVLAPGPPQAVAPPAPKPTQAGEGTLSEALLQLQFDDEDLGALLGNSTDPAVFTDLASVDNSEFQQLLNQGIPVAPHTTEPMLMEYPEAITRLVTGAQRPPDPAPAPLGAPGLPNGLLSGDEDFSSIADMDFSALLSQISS

- IC50 (REL (human c-Rel)): ~10 µM
- IC50 (p65 (RelA)): ~10 µM
SMILES: CCOC(=O)C1=NO[C@@]2(C=C(Br)C(=O)[C@H]3O[C@H]32)C1 (mixture of isomers) [CM101]

Reference: article PMC4863944, “Inhibition of Oncogenic Transcription Factor REL by the Natural Product Derivative Calafianin Monomer 101 Induces Proliferation Arrest and Apoptosis in Human B-Lymphoma Cell Lines” (Molecules, 2015)
